Laboratory results as given in patent US9351955B2, “Compounds and pharmaceutical compositions thereof for the treatment of cystic fibrosis” (Galapagos NV, priority 2013, dated 2016).

Columns and labels:
CFTR ΔF508 mutant = biological target: T1, CFTR ΔF508 mutant (Homo sapiens, UniProt P13569, DEL508-508); assay: YFP-halide influx assay for the CFTR-ΔF508 mutation (384 well, CFBE41o- cells, FDSS/μCell); format: cell-based; conditions: forskolin 10.67 μM, fluorescence after 36 seconds, read-out: EC50 measured by YFP-halide influx assay for the CFTR-ΔF508
T1 construct: expressed in transfected cells; host or cells: CFBE41o- (adenoviral transduction)
T1 sequence (P13569 with tags, fused parts or gaps DEL508-508): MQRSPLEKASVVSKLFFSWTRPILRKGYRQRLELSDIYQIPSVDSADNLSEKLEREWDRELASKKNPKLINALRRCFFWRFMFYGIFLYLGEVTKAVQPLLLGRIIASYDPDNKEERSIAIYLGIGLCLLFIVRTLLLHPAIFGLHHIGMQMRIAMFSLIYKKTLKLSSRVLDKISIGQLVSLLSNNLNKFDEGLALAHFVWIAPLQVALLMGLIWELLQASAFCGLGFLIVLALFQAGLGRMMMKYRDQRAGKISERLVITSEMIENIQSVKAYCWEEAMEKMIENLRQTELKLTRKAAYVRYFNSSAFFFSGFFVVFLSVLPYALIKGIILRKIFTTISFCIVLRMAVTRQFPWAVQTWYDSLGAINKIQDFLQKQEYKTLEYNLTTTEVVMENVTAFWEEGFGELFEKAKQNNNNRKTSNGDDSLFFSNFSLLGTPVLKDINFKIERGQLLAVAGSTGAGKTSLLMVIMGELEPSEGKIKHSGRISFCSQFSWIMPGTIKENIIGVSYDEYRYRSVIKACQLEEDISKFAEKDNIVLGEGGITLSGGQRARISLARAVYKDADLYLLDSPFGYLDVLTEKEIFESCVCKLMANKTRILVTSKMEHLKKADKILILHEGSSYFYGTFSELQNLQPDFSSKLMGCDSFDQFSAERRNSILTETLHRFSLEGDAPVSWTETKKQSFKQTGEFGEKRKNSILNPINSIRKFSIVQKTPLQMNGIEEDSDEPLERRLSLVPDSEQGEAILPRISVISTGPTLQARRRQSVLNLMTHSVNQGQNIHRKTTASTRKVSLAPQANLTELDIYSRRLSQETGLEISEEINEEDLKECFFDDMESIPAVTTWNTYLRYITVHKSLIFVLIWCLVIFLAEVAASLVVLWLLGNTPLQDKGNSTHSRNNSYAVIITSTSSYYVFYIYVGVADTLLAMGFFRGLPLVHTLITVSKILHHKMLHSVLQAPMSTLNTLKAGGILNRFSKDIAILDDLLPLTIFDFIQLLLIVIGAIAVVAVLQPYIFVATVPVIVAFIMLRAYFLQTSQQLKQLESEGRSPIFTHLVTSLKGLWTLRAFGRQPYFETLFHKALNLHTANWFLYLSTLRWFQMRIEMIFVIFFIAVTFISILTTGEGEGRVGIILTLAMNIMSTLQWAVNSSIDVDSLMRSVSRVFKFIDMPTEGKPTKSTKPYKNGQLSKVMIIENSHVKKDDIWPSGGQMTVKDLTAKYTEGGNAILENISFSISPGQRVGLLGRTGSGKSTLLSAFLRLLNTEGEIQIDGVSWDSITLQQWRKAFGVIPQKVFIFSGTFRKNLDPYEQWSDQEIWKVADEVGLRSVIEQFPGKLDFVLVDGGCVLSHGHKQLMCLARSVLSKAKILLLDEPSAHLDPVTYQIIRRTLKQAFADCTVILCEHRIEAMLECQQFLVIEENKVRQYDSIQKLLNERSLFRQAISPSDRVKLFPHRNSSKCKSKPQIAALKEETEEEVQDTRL
Description: 6.2. YFP-Halide Influx Assay for the CFTR-ΔF508 Mutation
The YFP halide influx assay measures the functionality of the cystic fibrosis Transmembrane Conductance regulator (CFTR) channels in the cystic fibrosis bronchial epithelium cell line CFBE41o-. The assay is used to evaluate the capacity of compounds to increase the open probability of existing CFTR channels in the membrane. It makes use of the observation that the yellow fluorescent protein (YFP) variant YFP H148Q, I152L has its fluorescence substantially quenched by halide ions like Cl— and I— (Galietta et al., 2001; Nagai et al., 2002).
For this purpose, CFBE410-cells are seeded in 384 well plates (3000 CFBE cells/well). One day after seeding, the CFBE cells are transduced with adenoviral vectors that direct the expression of the CFTR ΔF508 mutant and of the YFP reporter. Cells are incubated at 27° C., 5% CO2 for 24 hours so as to allow for the proper folding and migration to the membrane of the CFTR channel or treated with a CFTR modulator during 24 h at 37° C.
(§1) The I— induced quenching of fluorescence is recorded on an immediately after injection of I— for 2 min on an FDSS/μCell (Hamamatsu). The capacity of a compound to increase the channel opening is directly correlated with the decrease in fluorescence, and is expressed as (1−(fluorescence after 36 seconds (F)/fluorescence before injection (F0))) and an EC50 can be derived from a (1−F/F0) vs compound concentration plot.

CFTR G551D mutant = biological target: T2, CFTR G551D mutant (Homo sapiens, UniProt P13569, G551D); assay: YFP-halide influx assay for the CFTR-G551D mutation (HEK293 cells); format: cell-based; conditions: HEK293 cells expressing CFTR G551D and YFP reporter; forskolin 10.67 μM; read-out: EC50 measured by YFP-halide influx assay for the CFTR-G551D
T2 construct: expressed in transfected cells; host or cells: HEK293 (reverse transfection with plasmids)
T2 sequence (P13569 whole entry G551D): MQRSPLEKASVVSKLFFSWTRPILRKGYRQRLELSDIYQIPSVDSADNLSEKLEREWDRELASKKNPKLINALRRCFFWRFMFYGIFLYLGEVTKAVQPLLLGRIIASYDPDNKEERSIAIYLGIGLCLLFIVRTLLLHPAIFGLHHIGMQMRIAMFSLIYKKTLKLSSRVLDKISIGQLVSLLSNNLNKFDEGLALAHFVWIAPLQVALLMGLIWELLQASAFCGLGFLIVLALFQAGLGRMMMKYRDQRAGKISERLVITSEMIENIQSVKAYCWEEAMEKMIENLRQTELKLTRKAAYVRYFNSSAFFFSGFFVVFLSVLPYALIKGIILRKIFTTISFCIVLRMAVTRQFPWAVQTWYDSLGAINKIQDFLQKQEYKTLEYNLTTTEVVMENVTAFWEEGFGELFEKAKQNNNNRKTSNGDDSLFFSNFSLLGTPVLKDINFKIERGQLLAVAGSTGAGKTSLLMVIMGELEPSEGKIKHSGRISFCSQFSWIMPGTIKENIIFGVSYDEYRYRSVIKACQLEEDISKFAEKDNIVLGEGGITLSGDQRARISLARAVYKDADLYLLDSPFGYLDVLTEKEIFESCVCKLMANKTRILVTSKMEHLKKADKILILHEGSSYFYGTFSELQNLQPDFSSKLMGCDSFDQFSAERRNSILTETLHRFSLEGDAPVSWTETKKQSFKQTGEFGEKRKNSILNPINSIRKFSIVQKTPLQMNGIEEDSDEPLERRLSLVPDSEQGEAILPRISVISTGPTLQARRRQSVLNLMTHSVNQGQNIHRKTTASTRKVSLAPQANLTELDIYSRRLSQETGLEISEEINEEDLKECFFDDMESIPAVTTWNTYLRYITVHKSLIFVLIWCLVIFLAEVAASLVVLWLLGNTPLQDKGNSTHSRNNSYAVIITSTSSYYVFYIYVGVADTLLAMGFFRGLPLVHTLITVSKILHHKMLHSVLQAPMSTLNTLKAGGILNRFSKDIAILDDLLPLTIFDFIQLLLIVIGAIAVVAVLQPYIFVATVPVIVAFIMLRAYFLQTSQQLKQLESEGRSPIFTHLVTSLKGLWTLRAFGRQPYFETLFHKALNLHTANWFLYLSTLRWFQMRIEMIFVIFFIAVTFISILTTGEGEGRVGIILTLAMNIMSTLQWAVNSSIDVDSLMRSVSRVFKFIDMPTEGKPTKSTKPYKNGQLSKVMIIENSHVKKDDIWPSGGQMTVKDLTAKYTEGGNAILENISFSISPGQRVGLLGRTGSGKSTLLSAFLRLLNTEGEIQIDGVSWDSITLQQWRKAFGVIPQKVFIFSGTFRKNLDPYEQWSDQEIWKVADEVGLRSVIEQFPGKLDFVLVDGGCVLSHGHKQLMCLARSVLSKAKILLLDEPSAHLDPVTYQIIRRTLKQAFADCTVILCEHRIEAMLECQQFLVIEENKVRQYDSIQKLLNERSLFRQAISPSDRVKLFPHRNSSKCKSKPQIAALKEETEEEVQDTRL
Description: 6.3. YFP-Halide Influx Assay for the CFTR-G551D Mutation
The YFP halide influx assay measures the functionality of the cystic fibrosis Transmembrane Conductance regulator (CFTR) channels. The assay is used to evaluate the capacity of compounds to increase the channel opening of existing mutant CFTR channels in the membrane. It makes use of the observation that the yellow fluorescent protein (YFP) variant YFP H148Q, I152L, F47L has its fluorescence substantially quenched by halide ions like Cl^− and I^−. (Galietta et al., 2001)
For this purpose, HEK293-cells are seeded in 96 well plates. During seeding, the cells are reverse-transfected with plasmid vectors that direct the expression of the CFTR G551D mutant and of the YFP reporter. Cells are incubated at 37° C., 5% CO2 for 24 hours so as to allow for sufficient expression of the CFTR protein.
as §1, with “I^−-induced” for “I— induced”, “recorded” for “recorded on an”, “I^−” for “I—”, “7 seconds.” for “2 min on an FDSS/μCell (Hamamatsu).”, “7” for “36”

In the case of `CC(C)C(O)C(=O)Nc1sc2c(c1C(N)=O)CC(C)(C)OC2(C)C` (single isomer, unassigned) [Compound 51, 2-[[2-hydroxy-3-methyl-butanoyl]amino]-5,5,7,7-tetramethyl-4H-thieno[2,3-c]pyran-3-carboxamide], the EC50 (CFTR ΔF508 mutant) is reported as 0.0925 µM and the EC50 (CFTR G551D mutant) is reported as 5.55 µM.
`CC1(C)Cc2c(sc(NC(=O)C(CO)CC3CC3)c2C(N)=O)C(C)(C)O1` (single isomer, unassigned) [Compound 96, 2-[[2-(cyclopropylmethyl)-3-hydroxy-propanoyl]amino]-5,5,7,7-tetramethyl-4H-thieno[2,3-c]pyran-3-carboxamide] gave an EC50 (CFTR ΔF508 mutant) of 0.0974 µM and an EC50 (CFTR G551D mutant) of 3.33 µM.
`CC1(C)Cc2c(sc(NC(=O)C(CO)CC3CC3)c2C(N)=O)C(C)(C)O1` (single isomer, unassigned) [Compound 97, 2-[[2-(cyclopropylmethyl)-3-hydroxy-propanoyl]amino]-5,5,7,7-tetramethyl-4H-thieno[2,3-c]pyran-3-carboxamide] showed an EC50 (CFTR ΔF508 mutant) of 0.113 µM and an EC50 (CFTR G551D mutant) of 2.78 µM.
For `CC(C)(C)CC(O)C(=O)Nc1sc2c(c1C(N)=O)CC(C)(C)OC2(C)C` (single isomer, unassigned) [Compound 109, 2-[[2-hydroxy-4,4-dimethyl-pentanoyl]amino]-5,5,7,7-tetramethyl-4H-thieno[2,3-c]pyran-3-carboxamide], the EC50 (CFTR ΔF508 mutant) was 0.00432 µM and the EC50 (CFTR G551D mutant) was 3.26 µM.
In the case of `CC1(C)Cc2c(sc(NC(=O)c3n[nH]cc3C3COCCO3)c2C(N)=O)C(C)(C)O1` (single isomer, unassigned) [Compound 111, N-(3-carbamoyl-5,5,7,7-tetramethyl-4H-thieno[2,3-c]pyran-2-yl)-4-[1,4-dioxan-2-yl]-1H-pyrazole-3-carboxamide], the EC50 (CFTR ΔF508 mutant) is reported as 0.0239 µM and the EC50 (CFTR G551D mutant) is reported as 3.1 µM.
Compound `CC1(C)Cc2c(sc(NC(=O)c3n[nH]cc3C3COCCO3)c2C(N)=O)C(C)(C)O1` (single isomer, unassigned) [Compound 112, N-(3-carbamoyl-5,5,7,7-tetramethyl-4H-thieno[2,3-c]pyran-2-yl)-4-[1,4-dioxan-2-yl]-1H-pyrazole-3-carboxamide] has an EC50 (CFTR ΔF508 mutant) of 0.0344 µM and an EC50 (CFTR G551D mutant) of 1.83 µM.
For `CC1(C)Cc2c(sc(NC(=O)C3CC(F)(F)C3)c2C(N)=O)C(C)(C)O1` [Compound 47, 2-[(3,3-difluorocyclobutanecarbonyl)amino]-5,5,7,7-tetramethyl-4H-thieno[2,3-c]pyran-3-carboxamide], the EC50 (CFTR ΔF508 mutant) was 0.118 µM and the EC50 (CFTR G551D mutant) was 4.71 µM.
`CC1(C)Cc2c(sc(NC(=O)C3CC3(F)F)c2C(N)=O)C(C)(C)O1` (stereo not shown) [Compound 48, 2-[(2,2-difluorocyclopropanecarbonyl)amino]-5,5,7,7-tetramethyl-4H-thieno[2,3-c]pyran-3-carboxamide] showed an EC50 (CFTR ΔF508 mutant) of 0.0666 µM and an EC50 (CFTR G551D mutant) of 4.57 µM.
In the case of `CC1(C)Cc2c(sc(NC(=O)c3cn[nH]c3)c2C(N)=O)C(C)(C)O1` [Compound 49, N-(3-carbamoyl-5,5,7,7-tetramethyl-4H-thieno[2,3-c]pyran-2-yl)-1H-pyrazole-4-carboxamide], the EC50 (CFTR ΔF508 mutant) is reported as 0.125 µM and the EC50 (CFTR G551D mutant) is reported as 5.67 µM.
In the case of `CCC(O)C(=O)Nc1sc2c(c1C(N)=O)CC(C)(C)OC2(C)C` (stereo not shown) [Compound 53, 2-(2-hydroxybutanoylamino)-5,5,7,7-tetramethyl-4H-thieno[2,3-c]pyran-3-carboxamide], the EC50 (CFTR ΔF508 mutant) is reported as 0.00991 µM and the EC50 (CFTR G551D mutant) is reported as 3.33 µM.
`CC(O)C1(C(=O)Nc2sc3c(c2C(N)=O)CC(C)(C)OC3(C)C)CC1` (stereo not shown) [Compound 59, 2-[[1-(1-hydroxyethyl)cyclopropanecarbonyl]amino]-5,5,7,7-tetramethyl-4H-thieno[2,3-c]pyran-3-carboxamide] gave an EC50 (CFTR ΔF508 mutant) of 0.00874 µM and an EC50 (CFTR G551D mutant) of 3.33 µM.
`CC1(C)Cc2c(sc(NC(=O)C(O)C3CC3)c2C(N)=O)C(C)(C)O1` (stereo not shown) [Compound 60, 2-[(2-cyclopropyl-2-hydroxy-acetyl)amino]-5,5,7,7-tetramethyl-4H-thieno[2,3-c]pyran-3-carboxamide] was tested, and the EC50 (CFTR ΔF508 mutant) was 0.0184 µM and the EC50 (CFTR G551D mutant) was 6.67 µM.
`CC(O)c1cc(C(=O)Nc2sc3c(c2C(N)=O)CC(C)(C)OC3(C)C)n[nH]1` (stereo not shown) [Compound 61, 5-(1-Hydroxy-ethyl)-1H-pyrazole-3-carboxylic acid (3-carbamoyl-5,5,7,7-tetramethyl-4,7-dihydro-5H-thieno[2,3-c]pyran-2-yl)-amide] was tested, and the EC50 (CFTR ΔF508 mutant) was 0.188 µM and the EC50 (CFTR G551D mutant) was 4.16 µM.
`CCOC(=O)C1CC1C(=O)Nc1sc2c(c1C(N)=O)CC(C)(C)OC2(C)C` (stereo not shown) [Compound 62, 2-(3-Carbamoyl-5,5,7,7-tetramethyl-4,7-dihydro-5H-thieno[2,3-c]pyran-2-ylcarbamoyl)-cyclopropanecarboxylic acid ethyl ester] was tested, and the EC50 (CFTR ΔF508 mutant) was 0.301 µM and the EC50 (CFTR G551D mutant) was 3.33 µM.
Work on `COC/C=C/c1c[nH]nc1C(=O)Nc1sc2c(c1C(N)=O)CC(C)(C)OC2(C)C` [Compound 63, N-(3-carbamoyl-5,5,7,7-tetramethyl-4H-thieno[2,3-c]pyran-2-yl)-4-[(E)-3-methoxyprop-1-enyl]-1H-pyrazole-3-carboxamide] yielded an EC50 (CFTR ΔF508 mutant) of 0.0663 µM and an EC50 (CFTR G551D mutant) of 1.19 µM.
`CC1(C)Cc2c(sc(NC(=O)c3cc(C(C)(C)O)[nH]n3)c2C(N)=O)C(C)(C)O1` [Compound 64, N-(3-carbamoyl-5,5,7,7-tetramethyl-4H-thieno[2,3-c]pyran-2-yl)-5-(1-hydroxy-1-methyl-ethyl)-1H-pyrazole-3-carboxamide] was tested, and the EC50 (CFTR ΔF508 mutant) was 0.167 µM and the EC50 (CFTR G551D mutant) was 2.9 µM.
`COCCCc1c[nH]nc1C(=O)Nc1sc2c(c1C(N)=O)CC(C)(C)OC2(C)C` [Compound 65, N-(3-carbamoyl-5,5,7,7-tetramethyl-4H-thieno[2,3-c]pyran-2-yl)-4-(3-methoxypropyl)-1H-pyrazole-3-carboxamide] showed an EC50 (CFTR ΔF508 mutant) of 0.027 µM and an EC50 (CFTR G551D mutant) of 1.56 µM.
Work on `CC1(C)Cc2c(sc(NC(=O)CO)c2C(N)=O)C(C)(C)O1` [Compound 66, 2-[(2-hydroxyacetyl)amino]-5,5,7,7-tetramethyl-4H-thieno[2,3-c]pyran-3-carboxamide] yielded an EC50 (CFTR ΔF508 mutant) of 0.084 µM and an EC50 (CFTR G551D mutant) of 3.33 µM.
`CC(C)C(O)CC(=O)Nc1sc2c(c1C(N)=O)CC(C)(C)OC2(C)C` (stereo not shown) [Compound 67, 2-[(3-hydroxy-4-methyl-pentanoyl)amino]-5,5,7,7-tetramethyl-4H-thieno[2,3-c]pyran-3-carboxamide] gave an EC50 (CFTR ΔF508 mutant) of 0.0427 µM and an EC50 (CFTR G551D mutant) of 3.33 µM.
`CC1(C)Cc2c(sc(NC(=O)CC(O)C3CC3)c2C(N)=O)C(C)(C)O1` (stereo not shown) [Compound 68, 2-[(3-cyclopropyl-3-hydroxy-propanoyl)amino]-5,5,7,7-tetramethyl-4H-thieno[2,3-c]pyran-3-carboxamide] showed an EC50 (CFTR ΔF508 mutant) of 0.06 µM and an EC50 (CFTR G551D mutant) of 3.33 µM.
`CC1(C)Cc2c(sc(NC(=O)CC(O)C(F)(F)F)c2C(N)=O)C(C)(C)O1` (stereo not shown) [Compound 69, 5,5,7,7-tetramethyl-2-[(4,4,4-trifluoro-3-hydroxy-butanoyl)amino]-4H-thieno[2,3-c]pyran-3-carboxamide] showed an EC50 (CFTR ΔF508 mutant) of 0.0342 µM and an EC50 (CFTR G551D mutant) of 3.33 µM.
Compound `CC(CO)C(=O)Nc1sc2c(c1C(N)=O)CC(C)(C)OC2(C)C` (stereo not shown) [Compound 70, 2-[(3-hydroxy-2-methyl-propanoyl)amino]-5,5,7,7-tetramethyl-4H-thieno[2,3-c]pyran-3-carboxamide] has an EC50 (CFTR ΔF508 mutant) of 0.176 µM and an EC50 (CFTR G551D mutant) of 3.33 µM.
`CC1(C)Cc2c(sc(NC(=O)c3n[nH]cc3C#N)c2C(N)=O)C(C)(C)O1` [Compound 73, N-(3-carbamoyl-5,5,7,7-tetramethyl-4H-thieno[2,3-c]pyran-2-yl)-4-cyano-1H-pyrazole-3-carboxamide] gave an EC50 (CFTR ΔF508 mutant) of 0.0208 µM and an EC50 (CFTR G551D mutant) of 0.57 µM.
`CC1(C)Cc2c(sc(NC(=O)C3CCOC3)c2C(N)=O)C(C)(C)O1` (stereo not shown) [Compound 163, 5,5,7,7-tetramethyl-2-(tetrahydrofuran-3-carbonylamino)-4H-thieno[2,3-c]pyran-3-carboxamide] was tested, and the EC50 (CFTR ΔF508 mutant) was 0.636 µM.
Work on `COC(C)(C)C(=O)Nc1sc2c(c1C(N)=O)CC(C)(C)OC2(C)C` [Compound 164, 2-[(2-methoxy-2-methyl-propanoyl)amino]-5,5,7,7-tetramethyl-4H-thieno[2,3-c]pyran-3-carboxamide] yielded an EC50 (CFTR ΔF508 mutant) of 0.646 µM.
`CC1(C)Cc2c(sc(NC(=O)C(O)C(F)(F)F)c2C(N)=O)C(C)(C)O1` (stereo not shown) [Compound 167, 5,5,7,7-tetramethyl-2-[(3,3,3-trifluoro-2-hydroxy-propanoyl)amino]-4H-thieno[2,3-c]pyran-3-carboxamide] showed an EC50 (CFTR ΔF508 mutant) of 0.00758 µM.
